What was measured:
[1] = biological target: Cyclin-dependent kinase 2 (Homo sapiens, UniProt P24941); assay: In vitro inhibition of Cyclin-dependent kinase 2 was determined.
[2] = biological target: Cyclin-dependent kinase 1 (Homo sapiens, UniProt P06493); assay: Inhibition of Cyclin-dependent kinase 1
Chain of Cyclin-dependent kinase 1 (P06493 whole entry): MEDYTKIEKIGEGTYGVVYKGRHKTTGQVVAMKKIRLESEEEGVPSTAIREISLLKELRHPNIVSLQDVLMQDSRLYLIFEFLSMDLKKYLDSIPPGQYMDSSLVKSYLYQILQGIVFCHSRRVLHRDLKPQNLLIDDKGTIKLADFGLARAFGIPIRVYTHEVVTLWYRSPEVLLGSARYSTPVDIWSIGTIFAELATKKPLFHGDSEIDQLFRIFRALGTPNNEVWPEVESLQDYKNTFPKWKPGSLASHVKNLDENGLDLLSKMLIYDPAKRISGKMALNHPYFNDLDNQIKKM

Structure (SMILES) | IC50 [1] [nM] | IC50 [2] [nM]
CS(=O)(=O)Nc1cccc(-c2cc(Nc3ccc(S(N)(=O)=O)cc3)[nH]n2)c1 | 10.7 | 501
COc1cccc(-c2cc(Nc3ccc(S(N)(=O)=O)cc3)[nH]n2)c1 | 24.5 | 398
NS(=O)(=O)c1ccc(Nc2cc(-c3cccc(NC(=O)Nc4cc(C(F)(F)F)ccc4F)c3)n[nH]2)cc1 | 61.6 | 794
CN(C)c1ccc(-c2cc(Nc3ccc(S(N)(=O)=O)cc3)[nH]n2)cc1 | > 2000 | –
NS(=O)(=O)c1ccc(Nc2cc(-c3cccc(N4CCOCC4)c3)n[nH]2)cc1 | 490 | –
COc1ccc(-c2cc(Nc3ccc(S(N)(=O)=O)cc3)[nH]n2)cc1F | 407 | –
NS(=O)(=O)c1ccc(Nc2cc(-c3cccc(Br)c3)n[nH]2)cc1 | 23.4 | –
Nc1ccc(-c2cc(Nc3ccc(S(N)(=O)=O)cc3)[nH]n2)cc1 | 0.34 | 501
NS(=O)(=O)c1ccc(Nc2cc(-c3ccc(F)cc3)n[nH]2)cc1 | 17.4 | –
NS(=O)(=O)c1ccc(Nc2cc(-c3cccc(O)c3)n[nH]2)cc1 [GW831090X] | 9.1 | 398
NS(=O)(=O)c1ccc(Nc2cc(-c3ccc(Br)cc3)n[nH]2)cc1 | 10 | 126
NS(=O)(=O)c1ccc(Nc2cc(-c3ccc([N+](=O)[O-])cc3)n[nH]2)cc1 | 0.33 | –
NS(=O)(=O)c1ccc(Nc2cc(-c3ccc(O)c(F)c3)n[nH]2)cc1 [GW831091X] | 12.6 | 200
Nc1cccc(-c2cc(Nc3ccc(S(N)(=O)=O)cc3)[nH]n2)c1 | 166 | –
NS(=O)(=O)c1cccc(Nc2cc(-c3ccc(F)cc3)n[nH]2)c1 | 871 | –
NS(=O)(=O)c1ccc(Nc2cc(-c3cccc(NS(=O)(=O)c4ccccc4)c3)n[nH]2)cc1 | 10.7 | 501
CS(=O)(=O)Nc1ccc(Nc2cc(-c3cccc(Br)c3)n[nH]2)cc1 | 602 | –

Reference: ChEMBL document CHEMBL1136197, “Anilinopyrazole as selective CDK2 inhibitors: design, synthesis, biological evaluation, and X-ray crystallographic analysis” (Bioorg Med Chem Lett, 2003)
